Results reported in ChEMBL document CHEMBL1201862, “PubChem BioAssay data set” (2004).
Active and inactive are the calls of the source.

Columns and labels:
HeLa = assay: Cytotoxicity counterscreen assay for transcriptional activators of heat shock protein 70 (Hsp70). [Related pubchem assays: 1203, 1252 ]; format: functional; settings: Homo sapiens;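 note: cells exposed to compound for 16 hours before readout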
[1] = target: T1, Microphthalmia-associated transcription factor (Homo sapiens, UniProt O75030); assay: reducers of TRPM1 reporter luminescence, concentration series – cell-based, SK-MEL-5, cherry-picked, set 3, MITF inhibitor project, dose response (AID 493073); format: functional;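 note: SK-MEL-5 melanoma cells with luciferase driven by the MITF target TRPM1 promoter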
T1 sequence (O75030 whole entry): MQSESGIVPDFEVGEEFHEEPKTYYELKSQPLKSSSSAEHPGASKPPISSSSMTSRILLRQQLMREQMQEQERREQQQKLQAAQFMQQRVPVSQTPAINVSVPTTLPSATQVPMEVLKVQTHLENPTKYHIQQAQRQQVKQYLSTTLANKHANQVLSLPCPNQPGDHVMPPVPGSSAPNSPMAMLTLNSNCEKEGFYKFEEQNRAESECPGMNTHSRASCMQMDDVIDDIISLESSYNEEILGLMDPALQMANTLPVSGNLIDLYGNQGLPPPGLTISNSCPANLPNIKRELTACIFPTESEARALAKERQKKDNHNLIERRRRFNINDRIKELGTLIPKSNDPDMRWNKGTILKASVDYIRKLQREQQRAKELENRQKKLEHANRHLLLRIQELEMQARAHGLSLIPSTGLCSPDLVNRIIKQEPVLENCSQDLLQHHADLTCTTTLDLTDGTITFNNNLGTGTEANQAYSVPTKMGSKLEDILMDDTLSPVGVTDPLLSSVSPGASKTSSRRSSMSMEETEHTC

Paired box protein Pax-8 = Paired box protein Pax-8 (Homo sapiens, UniProt Q06710); assay: PAX8 transcriptional activity inhibition in RMG-I – RMG-I cells, luciferase, cherry-pick, dose response (AID 687027); format: functional, cell-based;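 note: luciferase reporter driven by Pax8 target thyroperoxidase promoter measured by SteadyGlo luminescence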
[2] = target: Sphingosine 1-phosphate receptor 4 (Homo sapiens, UniProt O95977); assay: Fluorescence dose response cell-based high throughput screening assay for antagonists of the Sphingosine 1-Phosphate Receptor 4 (S1P4). [Related pubchem assays: 1524 (Confirmation in triplicates.), 1510 (Primary screen.)]; format: functional
[3] = target: T2, Heat shock factor protein 1 (Mus musculus, UniProt P38532); assay: enhancement of HSF1-driven luciferase signal – cell-based, NIH3T3, luminescence, dose retest, confirmation (AID 435004); format: functional;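 note: stress induced by proteasome inhibitor MG132 added 30 min after compound; luciferase reporter driven by HSF1 response element in NIH3T3 cells; actives raise luminescence as potentiators of the MG132 stress response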
T2 sequence (P38532 whole entry): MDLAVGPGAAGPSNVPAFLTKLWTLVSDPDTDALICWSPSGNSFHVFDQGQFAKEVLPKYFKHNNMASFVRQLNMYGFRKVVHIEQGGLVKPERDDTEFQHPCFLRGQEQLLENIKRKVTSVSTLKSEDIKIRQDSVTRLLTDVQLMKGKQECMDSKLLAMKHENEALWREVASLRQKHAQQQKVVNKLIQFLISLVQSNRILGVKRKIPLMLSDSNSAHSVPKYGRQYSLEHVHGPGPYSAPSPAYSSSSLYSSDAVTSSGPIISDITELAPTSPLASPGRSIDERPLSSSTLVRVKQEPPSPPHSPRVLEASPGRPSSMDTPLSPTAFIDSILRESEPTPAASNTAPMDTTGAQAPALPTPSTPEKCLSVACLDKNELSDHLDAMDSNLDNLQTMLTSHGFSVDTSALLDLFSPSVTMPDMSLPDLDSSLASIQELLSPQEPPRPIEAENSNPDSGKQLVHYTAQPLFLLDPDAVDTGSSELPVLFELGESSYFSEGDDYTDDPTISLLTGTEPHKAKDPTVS

[4] = target: Sphingosine 1-phosphate receptor 1 (Homo sapiens, UniProt P21453); format: functional;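 note: Tango beta-arrestin reporter U2OS cells stimulated with S1P near its EC80; inhibitor potency meaning antagonism of receptor activation by the natural agonist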
[5] = A High Throughput Confirmatory Assay used to Identify Novel Compounds that Inhibit Mycobacterium Tuberculosis in the absence of Glycerol.; format: functional
Vero = assay: cells; format: functional; settings: Chlorocebus sabaeus
[6] = microbe, parasite or virus in culture; format: functional; settings: Mycobacterium tuberculosis
[7] = cAMP pathway inhibition in counterscreen cell line – TR-FRET cAMP detection, counter-screen for MC4R biased antagonist project, dose response (AID 602305); format: functional, cell-based;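 note: U2OS cells stimulated with forskolin near its EC80 as the cAMP inducer; potency is for inhibition of forskolin-stimulated cAMP signaling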
Melanocortin receptor 4 = Melanocortin receptor 4 (Homo sapiens, UniProt P32245); assay: inhibitors of MC4R cAMP signaling – cell-based, TR-FRET, biased antagonists, dose response (AID 602298); format: functional;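 note: antagonist potency against agonist-stimulated cAMP production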
[8] = target: Potassium voltage-gated channel subfamily KQT member 2 (Rattus norvegicus, UniProt O88943, W236L); assay: potentiation of rat KCNQ2 current – cell-based, automated electrophysiology, mechanism study for KCNQ2 potentiator project, dose response (AID 2603); format: functional
Streptokinase A = target: T3, Streptokinase A (Streptococcus pyogenes serotype M1, UniProt P10520); assay: Absorbance Microorganism-Based Dose Response Follow up to Identify Inhibitors of Streptokinase Expression. [Related pubchem assays: 1677 (Project Summary), 1915, 1914, 1902 (Retest at Dose), 1900 (Counter Screen), 1662 (Primary HTS)]; format: functional, Streptococcus pyogenes M1 GAS
T3 sequence (P10520 whole entry): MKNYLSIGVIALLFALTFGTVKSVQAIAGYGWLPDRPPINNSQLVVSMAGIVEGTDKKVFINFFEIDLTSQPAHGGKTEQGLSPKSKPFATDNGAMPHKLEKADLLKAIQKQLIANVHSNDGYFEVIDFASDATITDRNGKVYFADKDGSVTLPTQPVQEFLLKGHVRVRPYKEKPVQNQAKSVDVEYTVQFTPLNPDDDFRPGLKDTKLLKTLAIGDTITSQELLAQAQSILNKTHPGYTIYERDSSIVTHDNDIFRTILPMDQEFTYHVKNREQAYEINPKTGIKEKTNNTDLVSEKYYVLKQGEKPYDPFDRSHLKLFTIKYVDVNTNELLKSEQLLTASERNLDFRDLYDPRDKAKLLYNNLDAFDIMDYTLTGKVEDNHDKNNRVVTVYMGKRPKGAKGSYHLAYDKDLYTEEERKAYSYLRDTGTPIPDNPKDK

Streptococcus = assay: GAS bacterial viability reduction – luminescence, BacTiter-Glo, strain UMAA2166, counter-screen for streptokinase expression inhibitor project, dose response (AID 2477); format: functional, organism-based
INS1 = assay: INS-1E survival protection against cytokine death – cell-based, luminescence, retest, dose response (AID 449756); format: functional; settings: Rattus norvegicus;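 note: cell death triggered by IL-1 beta plus TNF-alpha plus IFN-gamma mixture; protective hits raise ATP signal compared with cytokine alone wells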
[9] = THP-1 cell cytotoxicity, dose response, cytotoxicity control for non-replicating M. tuberculosis project (AID 489025); format: functional
[10] = viability loss in HeLa cells – cytotoxicity control for MgcRacGAP inhibitor project, dose response (AID 624300); format: functional
[11] = Vero E6 cell cytotoxicity, dose response, cytotoxicity control for non-replicating M. tuberculosis project, secondary assay (AID 492998); format: functional, VeroE6; settings: Vero C1008
[12] = target: Photoreceptor-specific nuclear receptor (Homo sapiens, UniProt Q9Y5X4); format: functional, cell-based;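 note: CHO-S cells with Gal4-NCOR and VP16-NR2E3 two-hybrid luciferase reporter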
[13] = target: G-protein coupled receptor 55 (Homo sapiens, UniProt Q9Y2T6); assay: inhibition of LPI-stimulated GPR55 beta-arrestin translocation – imaging, U2OS, beta-arrestin-GFP, LPI agonist, primary screen (AID 2013); format: functional;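 note: antagonist potency measured as reduced agonist-driven arrestin aggregation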
[14] = Luminescence-based dose response cell-based high throughput screening assay for cytotoxic compounds using the IEC-6 intestinal epithelial cell line. [Related pubchem assays: 1858 (Summary AID.), 1825 (Counterscreen.), 1907 (Confirmation screen.)]; format: functional
[15] = target: T4, Rac GTPase-activating protein 1 (Homo sapiens, UniProt Q9H0H5); assay: blockers of MgcRacGAP-driven Rac1 GTP hydrolysis – biochemical, ADP Hunter fluorescence, primary and confirmatory, confirmation (AID 624330); format: functional
T4 sequence (Q9H0H5 whole entry): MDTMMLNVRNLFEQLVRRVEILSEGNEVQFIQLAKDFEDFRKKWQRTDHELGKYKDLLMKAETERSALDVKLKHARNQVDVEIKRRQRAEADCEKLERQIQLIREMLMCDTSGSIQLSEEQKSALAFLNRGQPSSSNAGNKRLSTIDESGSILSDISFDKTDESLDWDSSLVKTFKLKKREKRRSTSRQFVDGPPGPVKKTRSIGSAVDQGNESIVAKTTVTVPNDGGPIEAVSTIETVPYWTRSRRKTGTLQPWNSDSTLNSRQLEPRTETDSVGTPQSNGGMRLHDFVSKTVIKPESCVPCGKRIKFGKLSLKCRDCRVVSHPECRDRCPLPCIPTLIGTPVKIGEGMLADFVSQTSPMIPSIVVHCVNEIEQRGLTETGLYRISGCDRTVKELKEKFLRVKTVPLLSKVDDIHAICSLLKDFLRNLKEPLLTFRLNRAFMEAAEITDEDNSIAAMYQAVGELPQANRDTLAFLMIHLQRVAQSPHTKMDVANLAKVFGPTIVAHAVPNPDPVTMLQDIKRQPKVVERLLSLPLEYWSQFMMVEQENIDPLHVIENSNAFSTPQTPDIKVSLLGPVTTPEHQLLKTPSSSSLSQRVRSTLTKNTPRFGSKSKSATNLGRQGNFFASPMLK

cells = format: functional
[16] = HepG2 cell cytotoxicity, dose response, cytotoxicity control for non-replicating M. tuberculosis project (AID 489018); format: functional; settings: Mycobacterium tuberculosis
[17] = Fluorescence-based cell-based high throughput dose response assay for inhibitors of the interaction of nucleotide-binding oligomerization domain containing 2 (NOD2) and the receptor-interacting serine-threonine kinase 2 (RIPK2).; format: functional; settings: Homo sapiens

Chain of Melanocortin receptor 4 (P32245 whole entry): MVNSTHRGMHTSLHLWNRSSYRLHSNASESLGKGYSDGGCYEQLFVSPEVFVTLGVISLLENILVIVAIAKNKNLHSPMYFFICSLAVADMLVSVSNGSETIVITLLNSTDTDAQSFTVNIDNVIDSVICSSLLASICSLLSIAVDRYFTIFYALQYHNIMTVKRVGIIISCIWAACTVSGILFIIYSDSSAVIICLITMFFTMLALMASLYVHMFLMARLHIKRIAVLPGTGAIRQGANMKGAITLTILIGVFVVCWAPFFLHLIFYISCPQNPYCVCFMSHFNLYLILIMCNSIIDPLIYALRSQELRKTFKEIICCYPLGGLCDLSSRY
Chain of Paired box protein Pax-8 (Q06710 whole entry): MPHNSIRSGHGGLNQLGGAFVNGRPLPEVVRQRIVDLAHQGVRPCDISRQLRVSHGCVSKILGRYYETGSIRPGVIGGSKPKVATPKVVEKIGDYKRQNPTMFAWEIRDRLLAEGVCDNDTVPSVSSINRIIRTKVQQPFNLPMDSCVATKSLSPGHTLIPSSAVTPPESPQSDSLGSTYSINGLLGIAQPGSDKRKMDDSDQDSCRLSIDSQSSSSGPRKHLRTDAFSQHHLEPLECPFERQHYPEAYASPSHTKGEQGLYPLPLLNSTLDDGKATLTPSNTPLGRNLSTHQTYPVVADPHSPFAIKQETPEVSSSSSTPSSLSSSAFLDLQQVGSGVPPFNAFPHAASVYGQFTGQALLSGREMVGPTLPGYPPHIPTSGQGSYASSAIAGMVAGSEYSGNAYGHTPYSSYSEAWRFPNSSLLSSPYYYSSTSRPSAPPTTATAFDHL
Chain of G-protein coupled receptor 55 (Q9Y2T6 whole entry): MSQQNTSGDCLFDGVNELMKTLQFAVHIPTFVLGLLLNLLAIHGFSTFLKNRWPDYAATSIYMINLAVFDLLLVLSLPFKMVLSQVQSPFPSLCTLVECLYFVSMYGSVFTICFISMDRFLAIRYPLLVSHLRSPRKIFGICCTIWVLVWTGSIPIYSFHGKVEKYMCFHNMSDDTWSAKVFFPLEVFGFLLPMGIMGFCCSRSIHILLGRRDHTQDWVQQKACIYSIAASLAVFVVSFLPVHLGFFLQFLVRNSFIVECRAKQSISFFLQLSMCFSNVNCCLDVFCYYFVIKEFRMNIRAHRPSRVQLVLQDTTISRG
Chain of Photoreceptor-specific nuclear receptor (Q9Y5X4 whole entry, the tested form may be a part): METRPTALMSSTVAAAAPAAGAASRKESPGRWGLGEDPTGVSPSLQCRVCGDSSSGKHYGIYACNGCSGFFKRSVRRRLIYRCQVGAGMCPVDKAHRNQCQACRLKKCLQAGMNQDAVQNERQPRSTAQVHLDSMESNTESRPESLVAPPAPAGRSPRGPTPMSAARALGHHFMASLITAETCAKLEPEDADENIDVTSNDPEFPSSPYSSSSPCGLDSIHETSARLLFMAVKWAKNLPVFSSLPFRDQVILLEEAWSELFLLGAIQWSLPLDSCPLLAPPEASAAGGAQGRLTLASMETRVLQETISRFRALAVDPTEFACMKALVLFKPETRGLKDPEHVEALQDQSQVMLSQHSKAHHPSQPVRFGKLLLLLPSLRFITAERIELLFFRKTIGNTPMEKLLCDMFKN
Chain of Sphingosine 1-phosphate receptor 4 (O95977 whole entry): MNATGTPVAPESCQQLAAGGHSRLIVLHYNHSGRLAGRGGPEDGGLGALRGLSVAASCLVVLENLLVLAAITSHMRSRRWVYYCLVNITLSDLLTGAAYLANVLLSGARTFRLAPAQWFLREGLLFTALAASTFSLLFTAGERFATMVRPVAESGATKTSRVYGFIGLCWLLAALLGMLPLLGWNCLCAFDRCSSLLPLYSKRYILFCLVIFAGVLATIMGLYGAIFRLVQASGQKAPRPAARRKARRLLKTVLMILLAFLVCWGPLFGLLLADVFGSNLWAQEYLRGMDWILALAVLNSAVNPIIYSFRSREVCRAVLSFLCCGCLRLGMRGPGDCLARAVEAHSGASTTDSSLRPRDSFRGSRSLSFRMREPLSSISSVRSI
Chain of Potassium voltage-gated channel subfamily KQT member 2 (O88943 whole entry W236L): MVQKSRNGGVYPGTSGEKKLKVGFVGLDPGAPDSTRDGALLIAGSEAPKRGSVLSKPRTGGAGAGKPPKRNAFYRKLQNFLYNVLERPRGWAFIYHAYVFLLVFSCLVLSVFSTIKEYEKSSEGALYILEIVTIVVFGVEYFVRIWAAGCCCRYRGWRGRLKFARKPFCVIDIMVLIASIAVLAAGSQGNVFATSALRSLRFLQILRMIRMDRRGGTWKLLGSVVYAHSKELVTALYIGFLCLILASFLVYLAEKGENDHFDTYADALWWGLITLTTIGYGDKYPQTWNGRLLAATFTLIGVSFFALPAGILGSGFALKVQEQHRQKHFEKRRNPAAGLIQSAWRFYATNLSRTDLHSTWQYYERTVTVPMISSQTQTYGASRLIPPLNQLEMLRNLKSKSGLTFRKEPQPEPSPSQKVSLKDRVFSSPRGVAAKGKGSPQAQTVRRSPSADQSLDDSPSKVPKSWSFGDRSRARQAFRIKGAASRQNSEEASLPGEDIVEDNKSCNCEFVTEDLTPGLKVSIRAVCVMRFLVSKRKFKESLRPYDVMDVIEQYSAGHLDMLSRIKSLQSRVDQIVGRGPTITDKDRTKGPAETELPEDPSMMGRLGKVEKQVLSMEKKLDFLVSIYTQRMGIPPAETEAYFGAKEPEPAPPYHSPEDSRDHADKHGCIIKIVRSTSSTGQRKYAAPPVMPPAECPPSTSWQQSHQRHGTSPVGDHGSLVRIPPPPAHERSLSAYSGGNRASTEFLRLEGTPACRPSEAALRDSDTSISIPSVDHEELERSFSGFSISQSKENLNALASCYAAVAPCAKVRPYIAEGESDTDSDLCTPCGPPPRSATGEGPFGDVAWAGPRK
Chain of Sphingosine 1-phosphate receptor 1 (P21453 whole entry): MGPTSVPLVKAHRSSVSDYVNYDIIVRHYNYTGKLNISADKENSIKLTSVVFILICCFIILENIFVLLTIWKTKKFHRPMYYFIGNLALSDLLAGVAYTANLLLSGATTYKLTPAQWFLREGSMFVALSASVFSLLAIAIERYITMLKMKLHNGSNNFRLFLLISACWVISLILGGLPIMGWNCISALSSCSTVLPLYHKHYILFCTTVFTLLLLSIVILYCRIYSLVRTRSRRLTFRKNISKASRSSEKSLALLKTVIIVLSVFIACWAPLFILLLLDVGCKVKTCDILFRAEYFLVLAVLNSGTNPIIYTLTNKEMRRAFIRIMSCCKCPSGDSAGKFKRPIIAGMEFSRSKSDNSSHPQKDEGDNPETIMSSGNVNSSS

With `O=C(Nc1ccc(N2CCN(C(=O)c3ccccc3)CC2)cc1)c1ccc([N+](=O)[O-])o1` the CC50 (HeLa) was 7.65 µM (active), the AC50 [1] was 17.9 µM (active) and the AC50 (Paired box protein Pax-8) was 3.92 µM (active). The IC50 [2] was 1.64 µM (active), the EC50 [3] was 8.79 µM (active) and the IC50 [4] was 12.7 µM (not active).
In the case of `CC(C(Sc1ccccc1N)c1ccccc1)[N+](=O)[O-]` (centres undefined), the IC50 [5] is reported as > 100 µM (active), the CC50 (Vero) is reported as 16.6 µM (active) and the CC50 [6] is reported as 32.6 µM (active).
In the case of `COC(=O)CSc1[nH]c2ccc(F)cc2c1[N+](=O)[O-]`, the IC50 [7] is reported as > 64.6 µM (inactive), the IC50 (Melanocortin receptor 4) is reported as > 64.6 µM (inactive) and the EC50 [8] is reported as 0.17 µM (active).
In the case of `Cc1ccc(Sc2ccc(NC(=O)c3ccc(F)cc3)cc2C#N)cc1`, the IC50 [7] is reported as > 64.6 µM (inactive), the EC50 (Streptokinase A) is reported as > 500 µM (not active) and the IC50 (Melanocortin receptor 4) is reported as > 64.6 µM (inactive). For the same compound, the EC50 (Streptococcus) was > 500 µM (not active).
In the case of `CN1C2CCC1/C(=C/c1ccccn1)C(=O)/C2=C\c1ccccn1`, the AC50 (INS1) is reported as 1.59 µM (active), the CC50 [9] is reported as 0.894 µM (active) and the CC50 [10] is reported as 12.5 µM (active). The CC50 [11] was 1.06 µM (active), the IC50 [12] was 1.73 µM (active) and the IC50 [13] was 3.25 µM (active). The AC50 (Paired box protein Pax-8) was 0.852 µM (active), the IC50 [14] was 1.76 µM (active) and the IC50 [15] was 62.5 µM (active). For the same compound, the IC50 (cells) was 7.83 µM (active), the CC50 [6] was 1.69 µM (active) and the CC50 [16] was 1.49 µM (active). The IC50 [17] was 2.58 µM (active).
